In one data set the test system is MCF-7. The experiment in a line: In vitro cytotoxicity, MTT assay, MCF-7. The data set is classed as cell-based. Conditions: Homo sapiens, MCF7; MCF-7 cells, MTT, 72 h; average of two separate determinations; read-out: IC50 (µM) MCF-7.
The subject of another data set is HepG-2. The experiment in a line: In vitro cytotoxicity, MTT assay, HepG-2. The data set is classed as cell-based. Conditions: Homo sapiens, HepG2, HepG-2 cells, 72 h, average of two separate determinations.
Another data set has as its system A549. The experiment in a line: In vitro cytotoxicity, MTT assay, A549. Particulars: Homo sapiens, A549 cells, 72 h, average of two separate determinations. In kind it is cell-based.
The test system of a further data set is PC-3. The data set can be described thus: In vitro cytotoxicity, MTT assay, PC-3. Conditions: Homo sapiens, PC-3 cells, 72 h, average of two separate determinations. The data set is classed as cell-based.

The molecule `CC(C)(C#N)c1ccc(Nc2c(NC(=O)NS(=O)(=O)c3ccc(Cl)cc3)cnc3ccc(Br)cc23)cc1` [19b, N-((6-Bromo-4-((4-(2-cyanopropan-2-yl)phenyl)amino)quinolin-3-yl)carbamoyl)-4-chlorobenzenesulfonamide] returned a melting point of 279.2 to 280.1 °C. In addition, the IC50 in the data set on MCF-7 was 15.1 ± 1.1 µM. The molecule also yielded an IC50 in the data set with HepG-2 of 30.2 ± 1.45 µM. In the data set with A549, this molecule displayed an IC50 greater than 100 µM. In the data set on PC-3, this molecule yielded an IC50 of 34.3 ± 1.32 µM.
In turn, `Cc1ccc(S(=O)(=O)NC(=O)Nc2cnc3ccc(Br)cc3c2Nc2ccc(C(C)(C)C#N)cc2)cc1` [19c, N-((6-Bromo-4-((4-(2-cyanopropan-2-yl)phenyl)amino)quinolin-3-yl)carbamoyl)-4-methylbenzenesulfonamide] registered a melting point of 289.2 to 290.4 °C. In addition, in the data set with MCF-7, the IC50 stood at 3.96 ± 0.59 µM. Inhibition in the data set with HepG-2 was half-maximal at 31.2 ± 1.5 µM (IC50). In the data set with A549, this molecule gave an IC50 of 29 ± 1.31 µM. This molecule showed an IC50 in the data set on PC-3 of 40.6 ± 1.11 µM.
`CC(C)(C)c1ccc(S(=O)(=O)NC(=O)Nc2cnc3ccc(Br)cc3c2Nc2ccc(C(C)(C)C#N)cc2)cc1` [19d, N-((6-Bromo-4-((4-(2-cyanopropan-2-yl)phenyl)amino)quinolin-3-yl)carbamoyl)-4-(tert-butyl)benzenesulfonamide]: the melting point is 287.2 to 288.4 °C. Also, the half-maximal inhibitory concentration (IC50) in the data set with MCF-7 stood at 9.95 ± 0.99 µM. Besides, the IC50 in the data set with HepG-2 was greater than 100 µM. The molecule further registered an IC50 in the data set with A549 of 30.6 ± 1.45 µM. Moreover, the midpoint of inhibition in the data set with PC-3, the IC50, lay at 68.2 ± 1.32 µM.
The like results for `COc1ccc(Nc2c(NC(=O)NS(=O)(=O)c3ccc(F)cc3)cnc3ccc(Br)cc23)cc1` [20a, N-((6-Bromo-4-((4-methoxyphenyl)amino)quinolin-3-yl)carbamoyl)-4-fluorobenzenesulfonamide] were, in that order, 289.1 to 290.2 °C, 7.65 ± 0.88 µM, 20.3 ± 1.04 µM, 26.3 ± 1.13 µM and greater than 100 µM.
The like results for `COc1ccc(Nc2c(NC(=O)NS(=O)(=O)c3ccc(Cl)cc3)cnc3ccc(Br)cc23)cc1` [20b, N-((6-Bromo-4-((4-methoxyphenyl)amino)quinolin-3-yl)carbamoyl)-4-chlorobenzenesulfonamide] were, in that order, 282.2 to 283.1 °C, 10.7 ± 0.97 µM, 22.6 ± 1.12 µM, 30.2 ± 1.23 µM and greater than 100 µM.
`COc1ccc(Nc2c(NC(=O)NS(=O)(=O)c3ccc(C)cc3)cnc3ccc(Br)cc23)cc1` [20c, N-((6-Bromo-4-((4-methoxyphenyl)amino)quinolin-3-yl)carbamoyl)-4-methylbenzenesulfonamide] returned a melting point of 279.2 to 280.6 °C. For the same molecule, the IC50 with MCF-7 came out at 4.94 ± 0.64 µM. The molecule also had an IC50 with HepG-2 of 26.8 ± 1.22 µM. Further, half-maximal inhibition in the data set with A549 (IC50) required 23.4 ± 1.12 µM. Besides, the IC50 in the data set on PC-3 is greater than 100 µM.
In turn, `COc1ccc(Nc2c(NC(=O)NS(=O)(=O)c3ccc(C(C)(C)C)cc3)cnc3ccc(Br)cc23)cc1` [20d, N-((6-Bromo-4-((4-methoxyphenyl)amino)quinolin-3-yl)carbamoyl)-4-(tert-butyl)benzenesulfonamide] showed a melting point of 263.3 to 264.2 °C. Also, the IC50 in the data set with MCF-7 is 10.5 ± 0.98 µM. The same molecule yielded an IC50 with HepG-2 of 33.2 ± 1.26 µM. The molecule further registered an IC50 in the data set on A549 of 32.1 ± 1.18 µM. Also, the IC50 with PC-3 is greater than 100 µM.
The like results for `O=C(Nc1cnc2ccc(Br)cc2c1Nc1ccc(Br)cc1)NS(=O)(=O)c1ccc(F)cc1` [21a, N-((6-Bromo-4-((4-bromophenyl)amino)quinolin-3-yl)carbamoyl)-4-fluorobenzenesulfonamide] were, in that order, 278.7 to 279.5 °C, 37.6 ± 1.57 µM, 45.7 ± 1.66 µM, 59 ± 1.76 µM and greater than 100 µM.
With `Cn1c(=O)n(-c2ccc(C(C)(C)C#N)cc2)c2c3cc(-c4cnc5ccccc5c4)ccc3ncc21` [NVP-BEZ235, reference compound], the IC50 was 0.14 ± 0.1 µM in the data set with MCF-7, 0.54 ± 0.83 µM in the data set with HepG-2, 0.36 ± 0.86 µM in the data set with A549 and 0.2 ± 0.11 µM in the data set on PC-3.

(Values after article PMC6099940, “Design, Synthesis and Biological Evaluation of Novel Phenylsulfonylurea Derivatives as PI3K/mTOR Dual Inhibitors” (Molecules : A Journal of Synthetic Chemistry and Natural …, 2018).)
